One experiment deals with pAKT (T308). The experiment can be described thus: Immunoblot of phosphorylated AKT (T308) in PIK3CA mutant breast cancer cell lines. In kind it is cell-based, human. The procedure: Protocol for Measuring Phosphorylated AKT (T308) in MCF7, T47D Cells.
Low-passage MCF7 and T47D cells were obtained from AZ Cell Bank Collection and cultured as described previously (Avivar-Valderas et al., MCB, 31(17):3616-29, 2011). Wild-type and MCF10A-PI3Kα^H1047R were provided by Horizon Discovery.
After culture, cells were lysed, and protein was analyzed by immunoblotting (IB) (Avivar-Valderas et al., MCB, 31(17):3616-29, 2011). Membranes were blotted using antibodies against MAP3K1 (Santa Cruz) phospho AKT (Thr308) (Cell Signaling Technology) and Vinculin (Sigma). Bound antibodies were detected with horseradish peroxidase (HRP)-conjugated secondary antibodies and chemiluminescence assays (Avivar-Valderas et al., MCB, 31(17):3616-29, 2011).
The effect of MAP3K1 loss of expression on the pharmacological activity of Compound A using the cell-lines generated via siRNA transfection was examined by monitoring the level of inhibition of signalling readouts downstream of PI3Kalpha. A major readout of the pathway is the phosphorylation of AKT at Threonine 308. This phosphorylation is carried out by PDK1, itself activated by PI3K-generated PIP3 (phosphatidyl inositol 3,4,5-trisphosphate). Further pathway readouts are phosphorylation of PRAS40 (Proline-Rich AKT1 Substrate) at Thr246. […]
Background: A western blot detects proteins with antibodies after separation by electrophoresis.

A further experiment deals with pPRAS40. Briefly: Western blot of pPRAS40 (readout of AKT activity) in MCF7 parental and CR2.5 cells. Format: cell-based, human. As to conditions: MAP3K1-deficient MCF7 CR2.5 cell line, overnight incubation (FIG. 3). On the procedure: (§1) Control MCF7 (parental) and MAP3K1-deficient (CR2.5) cell lines cultured in full growth media and treated with either Compound A, Compound B and GDC-0068 as described previously. Following overnight incubation, cell lysates are prepared and analysed by Western blotting using antibodies specific for phosphorylated proteins in the PI3K pathway (FIG. 3).

Another experiment deals with pS6 RP (S235/236). Briefly: Western blot of pS6 RP (distal readout of PI3Kα activity) in MCF7 parental and CR2.5 cells. Format: cell-based, human. Conditions: overnight incubation (FIG. 3). On the procedure: as §1
Experiment [1] has as its system MCF10A-H1047R parental cells. The experiment can be described thus: IncuCyte proliferation assay, MCF10A-H1047R parental cells. In kind it is cell-based. Conditions: 500 nM; MCF10A-H1047R parental cells (FIG. 4, FIG. 6). The procedure: (§2) MCF7 and MCF10A cells were plated in 96 well plates at a density of 2000 cells per well in RPMI media containing 10% FBS or DMEM/F12 media containing 5% of HS (horse serum) respectively. After incubation at 37° C. for 16 hours, concentrations of Compound A, Compound B (30 μM to 117 nM) or AZD2014 (15 μM to 66 nM) were added to the assay plates. Plates were then placed in the IncuCyte and scheduled to be scanned every 6 h for 3 days. Relative percentage of confluence data was normalized to control DMSO treated cells and fitted to a nonlinear regression curve using PRISM (Graphpad).

The test system of experiment [2] is MCF10A-H1047R CR2.3 cells. Briefly: IncuCyte proliferation assay, MAP3K1 mutant clone H1047R-CR2.3. Format: cell-based. On the procedure: as §2
The next experiment deals with MCF7 parental cells. Briefly: IncuCyte proliferation assay, MCF7 parental cells. Format: cell-based, human. As to conditions: 500 nM; parental MCF7 cells (FIG. 4C-D, FIG. 6B). The procedure:
as §2

Another experiment deals with MCF7-CR1.4 cells. The experiment can be described thus: IncuCyte proliferation assay, MAP3K1 mutant clone MCF7-CR1.4. Format: cell-based, human.
The next experiment concerns MCF7 parental acini. The experiment can be described thus: 3D-Matrigel culture, acinus volume, MCF7 parental. In kind it is cell-based, human. As to conditions: 500 nM every 3 days until day 15; control cultures (MCF7 parental) (FIG. 7A left).
The subject of a further experiment is MCF7 CR2.5 acini. The experiment can be described thus: 3D-Matrigel culture, acinus volume, MAP3K1-deficient MCF7 CR2.5. Conditions: 500 nM every 3 days until day 15; MAP3K1-deficient acini (FIG. 7A left). In kind it is cell-based, human.
Experiment [3] has as its system MCF10A-H1047R control acini. The experiment can be described thus: 3D-Matrigel culture, cleaved caspase 3 (apoptosis), MCF10A-H1047R control acini. Format: cell-based. As to conditions: 15 days (FIG. 7A right). On the procedure:
(§3) For 3D cultures, cells were plated in commercially available growth factor-reduced Matrigel (Mgel) (BD Biosciences, San Diego, Calif.) and grown (Avivar-Valderas et al., MCB, 31(17):3616-29, 2011). Prior to fixation for IF analysis, acini were treated with 500 nM Compound B every 3 days until the endpoint (day 15). 3D-Matrigel MCF10A acinar structures were fixed at day 15 and processed for size measurement and IF microscopy analysis (Avivar-Valderas et al., MCB, 31(17):3616-29, 2011)
(§4) This might be explained by an increase of cell proliferation or/and reduction of cell death (anoikis in ECM-deprived cells). To test the latter, staining with caspase 3 (anoikis readout) and confocal equatorial sections to analyse lumen formation (main compartment in which anoikis takes place) were carried out.

Experiment [4] has as its system MAP3K1-deficient MCF10A-H1047R acini. Briefly: 3D-Matrigel culture, cleaved caspase 3 (apoptosis), MAP3K1-deficient MCF10A-H1047R acini. Format: cell-based. Conditions: 15 days (FIG. 7A right). On the procedure: as §3, §4
The test system of another experiment is pS6 RP. Briefly: pS6 RP staining of 3D-Matrigel acini, MCF7 parental and MCF7 CR2.5. In kind it is cell-based, human. Conditions: 2 μM per FIG. 7B legend. On the procedure: For 3D cultures, cells were plated in commercially available growth factor-reduced Matrigel (Mgel) (BD Biosciences, San Diego, Calif.) and grown (Avivar-Valderas et al., MCB, 31(17):3616-29, 2011). […] 3D-Matrigel MCF10A acinar structures were fixed at day 15 and processed for size measurement and IF microscopy analysis (Avivar-Valderas et al., MCB, 31(17):3616-29, 2011)
ECM-attached cells (located in the outer rim) were positive for pS6 RP in parental acini. As predicted, the number of pS6 RP positive cells was greater in MCF7-CR2.5 (FIG. 7B, grey bars).

Where [5] appears, read: MAP3K1-deficient MCF7 cells (CR2.5).

For the compound `CCn1nc(C2CCN(C(=O)CCO)CC2)nc1-c1cnc(N)c(-c2nnc(C(C)(C)C)o2)n1` [Compound A, 1-(4-(5-(5-amino-6-(5-tert-butyl-1,3,4-oxadiazol-2-yl)pyrazin-2-yl)-1-ethyl-1H-1,2,4-triazol-3-yl)piperidin-1-yl)-3-hydroxypropan-1-one], the “phosphorylation of AKT on Thr308” value in the experiment with pAKT (T308) (250 nM for 24 hours, control cells transfected with control siRNA duplex inactive on MAP3K1 mRNA (MCF7, T47D; FIG. 2A)) is “profound reduction”. Moreover, the “inhibition of PI3K signalling, effect on pAKT on Thr308 by Western blotting” value in the experiment on pAKT (T308) (MAP3K1-deficient MCF7 clones CR1.4 and CR2.5 compared to parental MCF7 (FIG. 2B)) was “less pronounced”. Besides, in the experiment with pPRAS40, the “inhibition of pPRAS40” value is listed as “resistant”. For the same compound, the “inhibition of pS6 RP activity” value in the experiment on pS6 RP (S235/236) (setting [5]) is on record as “resistant to all treatments”; in the experiment with pS6 RP (S235/236) (parental MCF7 cells) it was “efficiently inhibit”.

Regarding `NC1(C(=O)N[C@@H](CCO)c2ccc(Cl)cc2)CCN(c2ncnc3[nH]ccc23)CC1` [Compound B, 4-amino-N-[(1S)-1-(4-chlorophenyl)-3-hydroxy-propyl]-1-(7H-pyrrolo[2,3-d]pyrimidin-4-yl)piperidine-4-carboxamide], the “inhibition of pPRAS40” value in the experiment on pPRAS40 is “resistant”. The “inhibition of pS6 RP activity” value in the experiment on pS6 RP (S235/236) (setting [5]) is given as “resistant to all treatments”; in the experiment with pS6 RP (S235/236) (parental MCF7 cells), “efficiently inhibit”. The effect on proliferation result in experiment [1] was “able to inhibit the proliferation”; in [2] (500 nM, MAP3K1-mutant line derived from MCF10A-H1047R (FIG. 4, FIG. 6)) it was “no effect”; with MCF7-CR1.4 cells (500 nM, MCF7-CR1.4 (FIG. 4C-D, FIG. 6B)) it was “no effect”. Besides, the results for the “increase of IC50 for proliferation relative to parental cells” value (in experiment [2] (clone H1047R-CR2.3 relative to MCF10A-H1047R parental cells (FIG. 5)); with MCF7-CR1.4 cells (MCF7-CR1.4 relative to parental MCF7 cells (FIG. 5))) were 10 fold and 3 fold, respectively. Besides, in the experiment on MCF7 parental cells, the “effect on proliferation (growth)” value is reported as “able to reduce growth”. The acini volume entry in the experiment with MCF7 parental acini is “significantly reduced”. For the same compound, the “acini volume, reduction by treatment” value in the experiment with MCF7 CR2.5 acini is “partially reverted”. Also, in [3], the “number of positive cleaved caspase 3 events” value is recorded as “significant increase”. In [4], the “increase in number of positive cleaved caspase 3 events” value is recorded as “not significant”. In addition, in the experiment on pS6 RP (MCF7 CR2.5 acini), the “number of positive pS6 RP cells, reduction by treatment” value is “reverted”. The “number of positive pS6 RP cells” value with pS6 RP (parental MCF7 acini) is “strongly reduced”.

Consider `CC(C)NC[C@@H](C(=O)N1CCN(c2ncnc3c2[C@H](C)C[C@H]3O)CC1)c1ccc(Cl)cc1` [GDC-0068, ipatasertib, reference compound], for which, in the experiment with pPRAS40, the “inhibition of pPRAS40” value is recorded as “resistant”. Further, the “inhibition of pS6 RP activity” value in the experiment with pS6 RP (S235/236) (setting [5]) is on record as “resistant to all treatments”; in the experiment with pS6 RP (S235/236) (parental MCF7 cells), “efficiently inhibit”.

The values above are taken from patent publication US11685953B2, “Biomarkers and methods of treating cancer” (ASTRAZENECA AB, priority 2015, dated 2023).
